Experimental data reported in the supplement of paper PMC11061612.

Experiments:
Test in all cases: Bliss excess, mean over the matrix (fraction); higher = more synergy
[1] = system: 8505C (Thyroid Gland Carcinoma)
In short: (§1)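 Bliss excess equals the observed combination effect minus the expected value EA + EB − EA·EB, where EA and EB are the effects of each agent alone. Combination Emax is the second-highest inhibition within the matrix. Inhibition was scaled from CellTiter-Glo 2.0 luminescence, with 0 set by vehicle wells and 1 by blank wells, after 72 hours of two-drug dosing of cells plated in 1536-well plates.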

[2] = system: DAN-G (Pancreatic Carcinoma)
In short: as §1

[3] = system: DMS-114 (Small Cell Lung Carcinoma)
In short: as §1

[4] = system: HCC1187 (Breast Carcinoma)
In short: as §1

[5] = system: HCC1419 (Breast Carcinoma)
In short: as §1

[6] = system: KMS-12-BM (Plasma Cell Myeloma)
In short: as §1

[7] = system: KP-3 (Pancreatic Carcinoma)
In short: as §1

[8] = system: KY821 (Acute Myeloid Leukemia)
In short: as §1

[9] = system: MOG-G-CCM (Low Grade Glioma)
In short: as §1

[10] = system: MOLM-13 (Acute Myeloid Leukemia)
In short: as §1

[11] = system: NCCIT (Other Solid Carcinomas)
In short: as §1

[12] = system: NCI-H3122 (Lung Adenocarcinoma)
In short: as §1

[13] = system: NCI-H520 (Squamous Cell Lung Carcinoma)
In short: as §1

[14] = system: NCI-H661 (Non-Small Cell Lung Carcinoma)
In short: as §1

[15] = system: NCI-H929 (Plasma Cell Myeloma)
In short: as §1

RD (Rhabdomyosarcoma) = system: RD (Rhabdomyosarcoma)
In short: as §1

[16] = system: RPMI-8226 (Plasma Cell Myeloma)
In short: as §1

SJSA-1 (Osteosarcoma) = system: SJSA-1 (Osteosarcoma)
In short: as §1

[17] = system: SNU-398 (Hepatocellular Carcinoma)
In short: as §1

[18] = system: ST486 (Burkitt's Lymphoma)
In short: as §1

SMILES	Bliss excess [1]	Bliss excess [2]	Bliss excess [3]	Bliss excess [4]	Bliss excess [5]	Bliss excess [6]	Bliss excess [7]	Bliss excess [8]	Bliss excess [9]	Bliss excess [10]	Bliss excess [11]	Bliss excess [12]	Bliss excess [13]	Bliss excess [14]	Bliss excess [15]	Bliss excess (RD (Rhabdomyosarcoma))	Bliss excess [16]	Bliss excess (SJSA-1 (Osteosarcoma))	Bliss excess [17]	Bliss excess [18]
COc1nnc2ccc(N3CCC(c4ccc(OCCN5CCN(C)C(=O)[C@H]5C)cc4)CC3)nn12 [AZD5153] + CC1(C)CCC(CN2CCN(c3ccc(C(=O)NS(=O)(=O)c4ccc(NCC5CCOCC5)c([N+](=O)[O-])c4)c(Oc4cnc5[nH]ccc5c4)c3)CC2)=C(c2ccc(Cl)cc2)C1 [Venetoclax] (first compound max 1 µM, 7x7, partner max 1 µM)	-0.07	-0.0437	-0.0732	-0.0462	-0.0499	0.0033	-0.0399	-0.0376	-0.0471	0.0179	-0.0245	-0.0372	-0.0179	-0.0574	0.0001	-0.041	-0.0035	-0.0481	-0.126	-0.0493
COc1nnc2ccc(N3CCC(c4ccc(OCCN5CCN(C)C(=O)[C@H]5C)cc4)CC3)nn12 [AZD5153] + Cc1c2c(nn1C)CSCc1cc(n(C)n1)CSc1cc(c3ccccc3c1)OCCCc1c(C(=O)O)n(C)c3c-2c(Cl)ccc13 [AZD5991] (first compound max 1 µM, 7x7, partner max 1 µM)	-0.0393	-0.0163	0.029	0.0079	-0.0411	-0.0116	-0.0446	0.0104	0.0248	-0.0238	-0.0196	-0.0279	-0.0174	0.031	-0.0142	0.0267	-0.0253	-0.0673	-0.0431	-0.0275
COc1cccc(OCCCN)c1-c1cc(Nc2cnc(C#N)cn2)n[nH]1 [Prexasertib] + CN(C)CCCOc1ccc(-c2ccc3ncc4c(c3c2)n(C2CCOCC2)c(=O)n4C)cn1 [AZD0156] (first compound max 1 µM, 7x7, partner max 1 µM)	-0.0089	-0.0132	0.0778	-0.0016	-0.0285	0.0343	0.0021	-0.0228	-0.0184	-0.0248	0.0017	0.0204	-0.0486	-0.0451	-0.0523	-0.0008	-0.0048	-0.0246	0.0501	-0.0139
Cc1cc2ncnn2cc1Nc1ncc2c(n1)n(C1CCOCC1)c(=O)n2C [AZD7648] + O=C(c1cc(Cc2n[nH]c(=O)c3ccccc23)ccc1F)N1CCN(C(=O)C2CC2)CC1 [Olaparib] (first compound max 10 µM, 7x7, partner max 10 µM)	-0.0202	-0.0568	-0.0092	-0.0092	-0.066	0.027	-0.0409	-0.0003	-0.0269	-0.134	-0.0112	-0.0505	-0.0742	-0.0373	-0.0192	-0.0508	-0.038	-0.036	-0.0381	0.0048
CC1(C)CCC(CN2CCN(c3ccc(C(=O)NS(=O)(=O)c4ccc(NCC5CCOCC5)c([N+](=O)[O-])c4)c(Oc4cnc5[nH]ccc5c4)c3)CC2)=C(c2ccc(Cl)cc2)C1 [Venetoclax] + C[C@@H](Nc1cc(F)cc(F)c1)c1cc(C(=O)N(C)C)cc2c(=O)cc(N3CCOCC3)oc12 [AZD8186] (first compound max 1 µM, 7x7, partner max 3 µM)	-0.024	-0.0346	-0.0297	-0.0069	-0.0316	0.0494	-0.0376	0.0235	0.0384	0.0046	-0.0336	-0.0311	-0.0637	-0.0241	-0.007	0.0032	0.037	-0.0247	-0.0201	-0.0686
CN(CCO)CC[C@H](CSc1ccccc1)Nc1ccc(S(=O)(=O)NC(=O)c2ccc(N3CCC([C@@H](O)c4ccccc4-c4ccc(Cl)cc4)CC3)cc2)cc1S(=O)(=O)C(F)(F)F [AZD4320] + Cn1cnc2c(F)c(Nc3ccc(Br)cc3Cl)c(C(=O)NOCCO)cc21 [Selumetinib] (first compound max 1 µM, 7x7, partner max 3 µM)	0.0641	0.04	0.0226	0.0264	-0.0211	-0.024	0.0111	0.0262	-0.136	0.0296	-0.0045	0.0162	-0.0205	0.0414	0.0597	0.0308	0.0202	0.0413	0.0783	0.0086
Cc1c2c(nn1C)CSCc1cc(n(C)n1)CSc1cc(c3ccccc3c1)OCCCc1c(C(=O)O)n(C)c3c-2c(Cl)ccc13 [AZD5991] + CC1(C)CCC(CN2CCN(c3ccc(C(=O)NS(=O)(=O)c4ccc(NCC5CCOCC5)c([N+](=O)[O-])c4)c(Oc4cnc5[nH]ccc5c4)c3)CC2)=C(c2ccc(Cl)cc2)C1 [Venetoclax] (first compound max 1 µM, 7x7, partner max 1 µM)	-0.0253	-0.0352	0.0306	0.0026	0.0157	0.0301	-0.0533	0.0331	-0.0199	0.125	-0.032	-0.0378	-0.0019	0.052	-0.033	0.0081	0.007	-0.0941	-0.0013	0.0088
CC1(C)CCC(CN2CCN(c3ccc(C(=O)NS(=O)(=O)c4ccc(NCC5CCOCC5)c([N+](=O)[O-])c4)c(Oc4cnc5[nH]ccc5c4)c3)CC2)=C(c2ccc(Cl)cc2)C1 [Venetoclax] + COc1cc(Nc2ncc3c(n2)-c2ccc(Cl)cc2C(c2c(F)cccc2OC)=NC3)ccc1C(=O)O [Alisertib] (first compound max 1 µM, 7x7, partner max 10 µM)	0.0151	-0.0024	0.0341	-0.0999	-0.0573	0.085	-0.0376	0.0079	0.0552	0.0371	0.0159	-0.0278	-0.0425	-0.0206	0.197	0.0506	0.0721	-0.0583	-0.0219	-0.133
COc1cccc(OCCCN)c1-c1cc(Nc2cnc(C#N)cn2)n[nH]1 [Prexasertib] + C=CCn1c(=O)c2cnc(Nc3ccc(N4CCN(C)CC4)cc3)nc2n1-c1cccc(C(C)(C)O)n1 [AZD1775] (first compound max 1 µM, partner max 1 µM)	0.0849	-0.0093	0.0129	0.102	-0.0136	0.0595	-0.0138	0.063	0.0748	0.036	0.0561	0.124	0.0421	-0.0287	0.15	0.0732	0.0893	-0.0243	0.0254	0.0276
Cc1c2c(nn1C)CSCc1cc(n(C)n1)CSc1cc(c3ccccc3c1)OCCCc1c(C(=O)O)n(C)c3c-2c(Cl)ccc13 [AZD5991] + C[C@@H](Nc1cc(F)cc(F)c1)c1cc(C(=O)N(C)C)cc2c(=O)cc(N3CCOCC3)oc12 [AZD8186] (first compound max 1 µM, 7x7, partner max 3 µM)	-0.0043	0.0051	-0.0338	-0.0176	-0.0038	0.0019	-0.0351	0.0034	-0.0316	-0.0351	-0.0176	-0.0639	-0.0474	0.0181	-0.0218	0.0195	-0.0219	-0.105	-0.0004	-0.0659
CN(CCO)CC[C@H](CSc1ccccc1)Nc1ccc(S(=O)(=O)NC(=O)c2ccc(N3CCC([C@@H](O)c4ccccc4-c4ccc(Cl)cc4)CC3)cc2)cc1S(=O)(=O)C(F)(F)F [AZD4320] + C=CCn1c(=O)c2cnc(Nc3ccc(N4CCN(C)CC4)cc3)nc2n1-c1cccc(C(C)(C)O)n1 [AZD1775] (first compound max 1 µM, partner max 1 µM)	0.0033	0.0078	0.0074	-0.0064	-0.0722	0.0716	-0.0417	-0.0117	0.0069	0.0252	0.0045	-0.0108	-0.0444	-0.0018	-0.0219	0.0669	0.0467	-0.0545	-0.0291	-0.0447
CN(C)CCCOc1ccc(-c2ccc3ncc4c(c3c2)n(C2CCOCC2)c(=O)n4C)cn1 [AZD0156] + C=CCn1c(=O)c2cnc(Nc3ccc(N4CCN(C)CC4)cc3)nc2n1-c1cccc(C(C)(C)O)n1 [AZD1775] (first compound max 1 µM, partner max 1 µM)	-0.0492	-0.0064	-0.0479	-0.0117	-0.0446	0.0744	-0.0212	-0.0505	-0.0193	-0.0885	0.0278	-0.0352	-0.0692	-0.0615	-0.0464	-0.0377	-0.0017	-0.0674	-0.0887	0.0097
C[C@@H]1COCCN1c1cc(C2([S@](C)(=N)=O)CC2)nc(-c2ccnc3[nH]ccc23)n1 [AZD6738] + O=C(c1cc(Cc2n[nH]c(=O)c3ccccc23)ccc1F)N1CCN(C(=O)C2CC2)CC1 [Olaparib] (first compound max 10 µM, 7x7, partner max 10 µM)	0.0004	-0.0051	0.0254	0.0586	-0.0175	-0.0189	0.0143	-0.0521	0.0005	-0.0526	0.0227	0.0446	0.044	0.039	-0.0942	0.0312	-0.0189	-0.0371	0.0108	-0.0026
Cc1cc2ncnn2cc1Nc1ncc2c(n1)n(C1CCOCC1)c(=O)n2C [AZD7648] + CCN(CCO)CCCOc1ccc2c(Nc3cc(CC(=O)Nc4cccc(F)c4)[nH]n3)ncnc2c1 [AZD2811] (first compound max 10 µM, 7x7, partner max 1 µM)	0.0059	0.0271	0.0309	-0.0446	-0.0264	0.0266	0.0126	0.139	0.0246	-0.0314	0.0781	0.0558	0.0195	0.0564	-0.0223	-0.0243	0.0363	0.0601	0.013	-0.0697
